Assay results as given in patent US8609591B2, “Herbicidal composition” (Ishihara Sangyo Kaisha, Ltd., priority 2010, dated 2013).
Where two headings read alike, the source gives them in different places.

Legend:
[1] = system: velvetleaf (Abutilon theophrasti MEDIC.); test: Foliar treatment pot test, growth inhibition rate visually observed; assay type: in vivo; conditions: for inhibition at 18.75 g/ha / inhibition at 37.5 g/ha: 8 DAT
Protocol: (§1) Upland field soil was put into a 1/1,000,000 hectare pot, and seeds of various plants (barnyardgrass (Echinochloa crus-galli L.) and velvetleaf (Abutilon theophrasti MEDIC.) were sown. When the respective plants reached predetermined leaf stage, herbicidal compositions in predetermined amounts were diluted with water in an amount corresponding to 300 L/ha and applied for foliar treatment by a small sprayer.
(§2) On the 8 to 14 days after treatment (DAT), the state of growth of the respective plants was visually observed to determine the growth inhibition rate (measured value) in accordance with the following evaluation standard. Further, in accordance with the Colby's formula, the growth inhibition rate (calculated value) was calculated. In Tables, with respect to the benzoylpyrazole compound represented by the formula (I), Compound Nos. in Table 1 are described, and with respect to other compounds, common names are described. […]

[2] = system: barnyardgrass (Echinochloa crus-galli L.); test: as above; assay type: in vivo; conditions: for inhibition at 18.75 g/ha / inhibition at 37.5 g/ha: 8 DAT
Protocol: as §1, §2

[3] = 192 h, 1.8 to 2.4 leaf stage, foliar treatment, Table 2-2, read-out: Growth inhibition rate (%) of velvetleaf, Measured value
[4] = 192 h, 1.8 to 2.4 leaf stage, foliar treatment, Table 2-6, read-out: Growth inhibition rate (%) of velvetleaf, Measured value
[5] = 192 h, 2.6 to 3.2 leaf stage, foliar treatment, Table 2-4, read-out: Growth inhibition rate (%) of velvetleaf, Measured value
[6] = 192 h, 2.6 to 3.2 leaf stage, foliar treatment, Table 2-11, read-out: Growth inhibition rate (%) of velvetleaf, Measured value
[7] = 192 h, 2.6 to 3.2 leaf stage, foliar treatment, Table 2-13, read-out: Growth inhibition rate (%) of velvetleaf, Measured value
[8] = 192 h, 2.8 to 3.4 leaf stage, foliar treatment, Table 2-5, read-out: Growth inhibition rate (%) of barnyardgrass, Measured value
[9] = 192 h, 2.8 to 3.4 leaf stage, foliar treatment, read-out: Growth inhibition rate (%) of barnyardgrass, Measured value
[10] = 192 h, 3.6 to 4.5 leaf stage, foliar treatment, Table 2-3, read-out: Growth inhibition rate (%) of barnyardgrass, Measured value
[11] = 192 h, 3.6 to 4.5 leaf stage, foliar treatment, Table 2-10, read-out: Growth inhibition rate (%) of barnyardgrass, Measured value
[12] = 192 h, 3.6 to 4.5 leaf stage, foliar treatment, Table 2-12, read-out: Growth inhibition rate (%) of barnyardgrass, Measured value
[13] = 192 h, read-out: Growth inhibition rate (%) of velvetleaf, Measured value
[14] = 192 h, read-out: Growth inhibition rate (%) of barnyardgrass, Measured value

For `CC(C)c1nn(C(=O)NC(C)(C)C)c(=O)n1N` [Amicarbazone], the inhibition at 18.75 g/ha [1, 3] was 40%, the inhibition at 18.75 g/ha [1, 4] was 40% and the inhibition at 18.75 g/ha [1, 5] was 50%. It also gave an inhibition at 18.75 g/ha [1, 6] of 50%, an inhibition at 18.75 g/ha [1, 7] of 50% and an inhibition at 37.5 g/ha [1, 3] of 45%. The inhibition at 37.5 g/ha [1, 4] was 45%, the inhibition at 37.5 g/ha [1, 5] was 60% and the inhibition at 37.5 g/ha [1, 6] was 60%. The inhibition at 37.5 g/ha [1, 7] was 60%, the inhibition at 30 g/ha ([1]; 336 h, 30 g/ha, 4 to 4.5 leaf stage, 14 DAT, foliar treatment, read-out: Growth inhibition rate (%) of velvetleaf, Measured value) was 35% and the inhibition at 50 g/ha ([1]; 336 h, 50 g/ha, 4 to 4.5 leaf stage, 14 DAT, foliar treatment, read-out: Growth inhibition rate (%) of velvetleaf, Measured value) was 55%. The inhibition at 75 g/ha ([1]; 336 h, 75 g/ha, 4 to 4.5 leaf stage, 14 DAT, foliar treatment, read-out: Growth inhibition rate (%) of velvetleaf, Measured value) was 55%, the inhibition at 18.75 g/ha [2, 8] was 30% and the inhibition at 18.75 g/ha [2, 9] was 30%. It also gave an inhibition at 18.75 g/ha [2, 10] of 20%, an inhibition at 18.75 g/ha [2, 11] of 20% and an inhibition at 18.75 g/ha [2, 12] of 20%. The inhibition at 37.5 g/ha [2, 8] was 50%, the inhibition at 37.5 g/ha [2, 9] was 50% and the inhibition at 37.5 g/ha [2, 10] was 25%. It also gave an inhibition at 37.5 g/ha [2, 11] of 25%, an inhibition at 37.5 g/ha [2, 12] of 25% and an inhibition at 75 g/ha ([2]; 264 h, 75 g/ha, 3.2 to 4.1 leaf stage, 11 DAT, foliar treatment, read-out: Growth inhibition rate (%) of barnyardgrass, Measured value) of 40%. For the same molecule, the inhibition at 150 g/ha ([2]; 264 h, 150 g/ha, 3.2 to 4.1 leaf stage, 11 DAT, foliar treatment, read-out: Growth inhibition rate (%) of barnyardgrass, Measured value) was 73%, the inhibition at 30 g/ha ([2]; 336 h, 30 g/ha, 4.2 to 5.3 leaf stage, 14 DAT, foliar treatment, read-out: Growth inhibition rate (%) of barnyardgrass, Measured value) was 0% and the inhibition at 50 g/ha ([2]; 336 h, 50 g/ha, 4.2 to 5.3 leaf stage, 14 DAT, foliar treatment, read-out: Growth inhibition rate (%) of barnyardgrass, Measured value) was 0%. The inhibition at 75 g/ha ([2]; 336 h, 75 g/ha, 4.2 to 5.3 leaf stage, 14 DAT, foliar treatment, read-out: Growth inhibition rate (%) of barnyardgrass, Measured value) was 15%.

Molecule `CS(=O)(=O)c1ccc(C(=O)C2C(=O)CCCC2=O)c(Cl)c1` [Sulcotrione] has an inhibition at 75 g/ha [1, 13] of 30%, an inhibition at 150 g/ha [1, 13] of 30% and an inhibition at 75 g/ha [2, 14] of 40%. For the same molecule, the inhibition at 150 g/ha [2, 14] was 45%.

`Cc1c(C(=O)c2cnn(C)c2O)ccc(S(C)(=O)=O)c1C1=NOCC1` [Topramezone] showed an inhibition at 7 g/ha [1, 13] of 30%, an inhibition at 15 g/ha [1, 13] of 30% and an inhibition at 7 g/ha [2, 14] of 40%. The inhibition at 15 g/ha [2, 14] was 40%.
